Measurements reported in US20240299559A1, “COMPOUNDS THAT MEDIATE PROTEIN DEGRADATION AND METHODS OF USE THEREOF” (Monte Rosa Therapeutics, Inc., priority 2021, published 2024).

Key:
[1] = target: CRBN-DDB1 (Homo sapiens, UniProt Q96SW2); assay: Compound binding to CRBN by HTRF assay; conditions: CRBN-DDB1 2.5 nM, Cy5-Thalidomide 100 nM probe; Ki from geometric mean of IC50 by Cheng-Prustoff transformation
Procedure: Compound activity was monitored in a Homogenous Time-Resolved Fluorescence (HTRF) assay using 1-[5-({2-[2-(2-{[2-(2,6-dioxopiperidin-3-yl)-1,3-dioxo-2,3-dihydro-1H-isoindol-4-yl]oxy}acetamido)ethoxy]ethyl}carbamoyl)pentyl]-3,3-dimethyl-2-[(1E,3E)-5-[(2E)-1,3,3-trimethyl-5-sulfo-2,3-dihydro-1H-indol-2-ylidene]penta-1,3-dien-1-yl]-3H-indol-1-ium-5-sulfonate as a fluorescent probe. Biochemical assays were conducted in Greiner white 384 well HiBase plates (Cat. No 784075-25) in 10 μL total volume. A one pot detection solution of CRBN-DDB1 (2.5 nM), Anti-His Terbium Cryptate Gold (1×, PerkinElmer Cat. #: 61HI2TLB), and Cy5-Thalidomide (100 nM, Tenova Cat.: T52461) was prepared in 20 mM HEPES, 20 mM NaCl, 0.2 mM TCEP, 0.2 mM EDTA, and 0.005% Tween20 was dispensed to each assay plate. Compounds were stored in dry, ambient temperatures at 10 mM. A 10-point, 1:3 dilution series was prepared from 10 mM stock concentrations in Echo-compatible LDV plates. 10 nL of each compound dilution series was dispensed into assays wells using an Echo 650 (Labcyte inc. USA). 10 nL of 10 mM Lenalidomide was transferred into the active-control wells for the assay and 10 nL of DMSO was transferred into the neutral-control wells. The assay was then allowed to incubate for 30 min at ambient temperature after transferring compound. Plate measurements were taken on a Pherastar FSX (BMG Labtech, Germany) using the HTRF Red filter (Ex. 337 nm, em1:620 nm, em2:665 nm) (Flashes: 50, Integration time: 60-400 us, Z-height: 10 mm, Ratio-multipler: 10,000). The HTRF signal was then subsequently normalized to the neutral and active controls. Analysis and IC50 values were derived using KNIME analytics (KNIME Zurich) transformation and fitting within Collaborative Drug Discovery (Collaborative Drug Discovery USA). Ki was derived from the geometric mean of the IC50 values using the Cheng-Prustoff transformation.

[2] = target: T1, CDK2 (Homo sapiens, UniProt P24941); assay: CDK2 HiBiT assay (degradation, Dmax); format: cell-based; conditions: HEK293 clonal lines with CRISPR KI HiBiT tag on CDK2, stably expressing LgBiT; 24 hours incubation
T1 construct: HEK293 clonal lines with CRISPR KI HiBiT tag on CDK2 proteins; host or cells: HEK293 clonal line with CRISPR knock-in HiBiT on CDK2, stably expressing LgBiT
Procedure: HEK293 clonal lines with CRISPR KI HiBiT tag on CDK2 proteins and stably expressing LgBiT protein were obtained from Promega (Madison, WI). Cells were plated at 5000 cells per well using Multiflo (BioTek) in 384-well white solid bottom plates (Corning, 3570BC) in 25 ul volume in DMEM media (DMEM, high glucose, HEPES, no phenol red (ThermoFisher Scientific, 21063029)) containing 10% FBS (Corning, 35-075-CV), 1% Penicillin/Streptomycin (ThermoFisher Scientific, 15140-122). Cells were incubated for 16 hours at 37° C., 5% CO2. 75 nL of a compound at 30 μM were dosed into the plate using an Echo® 650 liquid handler (Labcyte). Cells were incubated at 37° C., 5% CO2 for 24 hours. 5 ul of HiBiT Lysis Reagent (Promega, N3030) is added using Combi Multidrop (ThermoFisher Scientific), plates are incubated for 15′ at 37° C., 5% CO2 and then signal was read on a Pherastar FSX using “LUM plus” optic module.
Analysis was performed in Scinamic (Scinamic, Cambridge, MA). Luminescence response (R) was calculated by the formula: response=100*(S−N)/(P−N) where S is the signal of the well, N and P the mean negative and positive control values respectively of the same plate. The luminescence response was then fitted in Scinamic using a 3-parameter agonist logistic fit (hillslope=1, EC50>0, top/bottom unconstrained).

Chain of CRBN-DDB1 (Q96SW2 whole entry): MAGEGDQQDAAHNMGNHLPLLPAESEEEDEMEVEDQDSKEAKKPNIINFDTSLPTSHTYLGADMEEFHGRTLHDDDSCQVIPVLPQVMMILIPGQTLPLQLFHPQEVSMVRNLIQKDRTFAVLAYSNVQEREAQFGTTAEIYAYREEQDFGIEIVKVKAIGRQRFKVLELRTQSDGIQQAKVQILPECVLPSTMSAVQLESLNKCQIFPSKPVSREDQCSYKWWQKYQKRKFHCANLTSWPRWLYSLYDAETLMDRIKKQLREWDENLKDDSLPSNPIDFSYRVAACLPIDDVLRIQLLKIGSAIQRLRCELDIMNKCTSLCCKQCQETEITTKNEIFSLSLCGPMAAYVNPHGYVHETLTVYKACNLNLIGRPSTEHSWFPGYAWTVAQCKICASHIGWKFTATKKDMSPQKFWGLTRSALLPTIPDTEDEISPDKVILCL
Chain of CRBN-DDB1 (Q16531 whole entry partner): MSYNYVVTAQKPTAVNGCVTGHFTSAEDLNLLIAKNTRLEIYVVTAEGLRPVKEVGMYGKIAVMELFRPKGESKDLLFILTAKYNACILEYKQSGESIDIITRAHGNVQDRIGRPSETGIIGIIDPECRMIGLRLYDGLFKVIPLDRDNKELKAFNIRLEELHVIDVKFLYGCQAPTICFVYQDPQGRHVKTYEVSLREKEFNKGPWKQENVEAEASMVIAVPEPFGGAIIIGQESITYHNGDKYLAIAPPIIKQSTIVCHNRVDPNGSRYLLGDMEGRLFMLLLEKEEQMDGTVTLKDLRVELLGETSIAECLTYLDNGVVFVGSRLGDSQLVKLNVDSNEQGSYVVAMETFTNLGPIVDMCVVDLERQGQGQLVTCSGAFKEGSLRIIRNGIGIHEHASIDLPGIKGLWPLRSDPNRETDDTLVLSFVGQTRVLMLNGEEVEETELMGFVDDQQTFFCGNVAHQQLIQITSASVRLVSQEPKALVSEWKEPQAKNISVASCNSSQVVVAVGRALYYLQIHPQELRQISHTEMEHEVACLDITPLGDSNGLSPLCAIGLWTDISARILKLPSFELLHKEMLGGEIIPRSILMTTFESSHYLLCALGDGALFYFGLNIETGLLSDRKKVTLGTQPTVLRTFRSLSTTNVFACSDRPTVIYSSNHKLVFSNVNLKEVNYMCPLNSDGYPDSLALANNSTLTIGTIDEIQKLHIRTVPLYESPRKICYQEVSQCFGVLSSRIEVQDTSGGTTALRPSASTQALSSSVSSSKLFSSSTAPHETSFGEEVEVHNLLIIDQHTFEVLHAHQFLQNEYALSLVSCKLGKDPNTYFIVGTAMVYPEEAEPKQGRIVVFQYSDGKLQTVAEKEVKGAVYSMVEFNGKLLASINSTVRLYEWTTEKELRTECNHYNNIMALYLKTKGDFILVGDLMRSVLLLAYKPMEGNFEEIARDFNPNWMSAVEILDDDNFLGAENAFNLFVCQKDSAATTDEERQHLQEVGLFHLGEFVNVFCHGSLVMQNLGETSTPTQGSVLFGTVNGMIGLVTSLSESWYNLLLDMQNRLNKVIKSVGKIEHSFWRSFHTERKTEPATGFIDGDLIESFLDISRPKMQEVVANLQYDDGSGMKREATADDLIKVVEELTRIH

SMILES: COc1ccc(COC(=O)NCc2ccc3c(c2)C(=O)N(C2CCC(=O)NC2=O)C3)cc1C(C)C (stereo not drawn) [Compound 47, [4-methoxy-3-(propan-2-yl)phenyl]methyl N-{[2-(2,6-dioxopiperidin-3-yl)-3-oxo-2,3-dihydro-1H-isoindol-5-yl]methyl}carbamate]
- Ki [1]: ≤ 100 nM
- Dmax [2]: 10 to 50%

SMILES: O=C1CCC(N2Cc3ccc(CNC(=O)OCc4ccc(C5(F)COC5)cc4)cc3C2=O)C(=O)N1 (stereo not drawn) [Compound 48, [4-(3-fluorooxetan-3-yl)phenyl]methyl N-{[2-(2,6-dioxopiperidin-3-yl)-3-oxo-2,3-dihydro-1H-isoindol-5-yl]methyl}carbamate]
- Ki [1]: ≤ 100 nM
- Dmax [2]: 10 to 50%

SMILES: CSc1ccc(COC(=O)NCc2ccc3c(c2)C(=O)N(C2CCC(=O)NC2=O)C3)cc1Cl (stereo not drawn) [Compound 49, [3-chloro-4-(methylsulfanyl)phenyl]methyl N-{[2-(2,6-dioxopiperidin-3-yl)-3-oxo-2,3-dihydro-1H-isoindol-5-yl]methyl}carbamate]
- Ki [1]: ≤ 100 nM
- Dmax [2]: 10 to 50%

SMILES: O=C1CCC(N2Cc3ccc(CNC(=O)OCc4ccc(C#CC(F)(F)F)cc4)cc3C2=O)C(=O)N1 (stereo not drawn) [Compound 50, [4-(3,3,3-trifluoroprop-1-yn-1-yl)phenyl]methyl N-{[2-(2,6-dioxopiperidin-3-yl)-3-oxo-2,3-dihydro-1H-isoindol-5-yl]methyl}carbamate]
- Ki [1]: 100 to 1000 nM
- Dmax [2]: 10 to 50%

SMILES: O=C1CCC(N2Cc3ccc(CNC(=O)OCc4cccc(-c5ccc(F)cc5)c4)cc3C2=O)C(=O)N1 (stereo not drawn) [Compound 51, {4′-fluoro-[1,1′-biphenyl]-3-yl}methyl N-{[2-(2,6-dioxopiperidin-3-yl)-3-oxo-2,3-dihydro-1H-isoindol-5-yl]methyl}carbamate]
- Ki [1]: 100 to 1000 nM
- Dmax [2]: 10 to 50%

SMILES: Cc1ncsc1-c1ccc(COC(=O)NCc2ccc3c(c2)C(=O)N(C2CCC(=O)NC2=O)C3)cc1 (stereo not drawn) [Compound 52, [4-(4-methyl-1,3-thiazol-5-yl)phenyl]methyl N-{[2-(2,6-dioxopiperidin-3-yl)-3-oxo-2,3-dihydro-1H-isoindol-5-yl]methyl}carbamate]
- Ki [1]: ≤ 100 nM
- Dmax [2]: 10 to 50%

SMILES: O=C1CCC(N2Cc3ccc(CNC(=O)OCc4ccc(CN5CCCCC5)cc4)cc3C2=O)C(=O)N1 (stereo not drawn) [Compound 53, {4-[(piperidin-1-yl)methyl]phenyl}methyl N-{[2-(2,6-dioxopiperidin-3-yl)-3-oxo-2,3-dihydro-1H-isoindol-5-yl]methyl}carbamate]
- Ki [1]: 100 to 1000 nM
- Dmax [2]: ≤ 10%

SMILES: O=C1CCC(N2Cc3ccc(CNC(=O)OCc4cccc(OCC(F)(F)F)c4)cc3C2=O)C(=O)N1 (stereo not drawn) [Compound 54, [3-(2,2,2-trifluoroethoxy)phenyl]methyl N-{[2-(2,6-dioxopiperidin-3-yl)-3-oxo-2,3-dihydro-1H-isoindol-5-yl]methyl}carbamate]
- Ki [1]: 100 to 1000 nM
- Dmax [2]: 10 to 50%

SMILES: O=C1CCC(N2Cc3ccc(CNC(=O)OCc4ccc(CN5CCOCC5)cc4)cc3C2=O)C(=O)N1 (stereo not drawn) [Compound 55, {4-[(morpholin-4-yl)methyl]phenyl}methyl N-{[2-(2,6-dioxopiperidin-3-yl)-3-oxo-2,3-dihydro-1H-isoindol-5-yl]methyl}carbamate]
- Ki [1]: ≤ 100 nM
- Dmax [2]: ≤ 10%

SMILES: O=C1CCC(N2Cc3ccc(CNC(=O)OCc4cccc(SC(F)(F)F)c4)cc3C2=O)C(=O)N1 (stereo not drawn) [Compound 56, {3-[(trifluoromethyl)sulfanyl]phenyl}methyl N-{[2-(2,6-dioxopiperidin-3-yl)-3-oxo-2,3-dihydro-1H-isoindol-5-yl]methyl}carbamate]
- Ki [1]: ≤ 100 nM
- Dmax [2]: 10 to 50%

SMILES: O=C1CCC(N2Cc3ccc(CNC(=O)OCc4ccc(OC(F)(F)F)cc4F)cc3C2=O)C(=O)N1 (stereo not drawn) [Compound 57, [2-fluoro-4-(trifluoromethoxy)phenyl]methyl N-{[2-(2,6-dioxopiperidin-3-yl)-3-oxo-2,3-dihydro-1H-isoindol-5-yl]methyl}carbamate]
- Ki [1]: ≤ 100 nM
- Dmax [2]: 10 to 50%

SMILES: COc1ccc(-c2cccc(COC(=O)NCc3ccc4c(c3)C(=O)N(C3CCC(=O)NC3=O)C4)c2)cc1 (stereo not drawn) [Compound 58, {4′-methoxy-[1,1′-biphenyl]-3-yl}methyl N-{[2-(2,6-dioxopiperidin-3-yl)-3-oxo-2,3-dihydro-1H-isoindol-5-yl]methyl}carbamate]
- Ki [1]: ≤ 100 nM
- Dmax [2]: 10 to 50%

SMILES: O=C1CCC(N2Cc3ccc(CNC(=O)OCc4ccc(C(F)(F)F)cc4)cc3C2=O)C(=O)N1 (stereo not drawn) [Compound 59, [4-(trifluoromethyl)phenyl]methyl N-{[2-(2,6-dioxopiperidin-3-yl)-3-oxo-2,3-dihydro-1H-isoindol-5-yl]methyl}carbamate]
- Ki [1]: 100 to 1000 nM
- Dmax [2]: 10 to 50%

SMILES: CC(C)c1ccc(COC(=O)NCc2ccc3c(c2)C(=O)N(C2CCC(=O)NC2=O)C3)cc1 (stereo not drawn) [Compound 60, [4-(propan-2-yl)phenyl]methyl N-{[2-(2,6-dioxopiperidin-3-yl)-3-oxo-2,3-dihydro-1H-isoindol-5-yl]methyl}carbamate]
- Ki [1]: ≤ 100 nM
- Dmax [2]: 10 to 50%

SMILES: O=C1CCC(N2Cc3ccc(CNC(=O)OCc4ccc(OCC(F)(F)F)nc4)cc3C2=O)C(=O)N1 (stereo not drawn) [Compound 61, [6-(2,2,2-trifluoroethoxy)pyridin-3-yl]methyl N-{[2-(2,6-dioxopiperidin-3-yl)-3-oxo-2,3-dihydro-1H-isoindol-5-yl]methyl}carbamate]
- Ki [1]: ≤ 100 nM
- Dmax [2]: 10 to 50%

SMILES: O=C1CCC(N2Cc3ccc(CNC(=O)OCc4ccc(OCC(F)(F)F)cc4)cc3C2=O)C(=O)N1 (stereo not drawn) [Compound 62, [4-(2,2,2-trifluoroethoxy)phenyl]methyl N-{[2-(2,6-dioxopiperidin-3-yl)-3-oxo-2,3-dihydro-1H-isoindol-5-yl]methyl}carbamate]
- Ki [1]: ≤ 100 nM
- Dmax [2]: 10 to 50%

SMILES: CC(C)(c1ccc(COC(=O)NCc2ccc3c(c2)C(=O)N(C2CCC(=O)NC2=O)C3)cc1)C(F)(F)F (stereo not drawn) [Compound 63, [4-(1,1,1-trifluoro-2-methylpropan-2-yl)phenyl]methyl N-{[2-(2,6-dioxopiperidin-3-yl)-3-oxo-2,3-dihydro-1H-isoindol-5-yl]methyl}carbamate]
- Ki [1]: ≤ 100 nM
- Dmax [2]: 10 to 50%

SMILES: O=C1CCC(N2Cc3ccc(CNC(=O)OCc4ccc(C5CC5)cc4)cc3C2=O)C(=O)N1 (stereo not drawn) [Compound 64, (4-cyclopropylphenyl)methyl N-{[2-(2,6-dioxopiperidin-3-yl)-3-oxo-2,3-dihydro-1H-isoindol-5-yl]methyl}carbamate]
- Ki [1]: 100 to 1000 nM
- Dmax [2]: 10 to 50%

SMILES: O=C1CCC(N2Cc3ccc(CNC(=O)OCc4ccc(OC5CCOCC5)nc4)cc3C2=O)C(=O)N1 (stereo not drawn) [Compound 65, [6-(oxan-4-yloxy)pyridin-3-yl]methyl N-{[2-(2,6-dioxopiperidin-3-yl)-3-oxo-2,3-dihydro-1H-isoindol-5-yl]methyl}carbamate]
- Ki [1]: ≤ 100 nM
- Dmax [2]: 10 to 50%

SMILES: O=C1CCC(N2Cc3ccc(CNC(=O)OCc4ccc(C(F)(F)F)nc4)cc3C2=O)C(=O)N1 (stereo not drawn) [Compound 66, [6-(trifluoromethyl)pyridin-3-yl]methyl N-{[2-(2,6-dioxopiperidin-3-yl)-3-oxo-2,3-dihydro-1H-isoindol-5-yl]methyl}carbamate]
- Ki [1]: ≤ 100 nM
- Dmax [2]: 10 to 50%

SMILES: CCC(COC(=O)NCc1ccc2c(c1)C(=O)N(C1CCC(=O)NC1=O)C2)c1ccccc1 (stereo not drawn) [Compound 67, 2-phenylbutyl N-{[2-(2,6-dioxopiperidin-3-yl)-3-oxo-2,3-dihydro-1H-isoindol-5-yl]methyl}carbamate]
- Ki [1]: 100 to 1000 nM
- Dmax [2]: 10 to 50%
